Measured values as given in US11229618B2 (Amarin Pharmaceuticals Ireland Limited, priority 2012, dated 2022).

Experiment: ANCHOR: plasma fatty acid concentrations, ratios and class proportions (GC/FID)
Assay type: in vivo, human
Conditions: for AA plasma Placebo-adjusted percent change from baseline / DHA plasma Placebo-adjusted percent change from baseline / DPAn-3 plasma Placebo-adjusted percent change from baseline / Linoleic plasma Placebo-adjusted percent change from baseline / Oleic plasma Placebo-adjusted percent change from baseline / Palmitic plasma Placebo-adjusted percent change from baseline / Ratio of AA/EPA plasma Placebo-adjusted percent change from baseline / Ratio of total ω-3/total ω-6 plasma Placebo-adjusted percent change from baseline / Stearic plasma Placebo-adjusted percent change from baseline: week 12, LS mean; for Monounsaturated, proportion of total fatty acids, plasma, Change from baseline / Saturated, proportion of total fatty acids, plasma, Change from baseline / Total ω-3, proportion of total fatty acids, plasma, Change from baseline / Total ω-6, proportion of total fatty acids, plasma, Change from baseline: LS mean (SE); for AA plasma Change from baseline / DHA plasma Change from baseline / DPAn-3 plasma Change from baseline / Linoleic plasma Change from baseline / Oleic plasma Change from baseline / Palmitic plasma Change from baseline / Ratio of AA/EPA plasma Change from baseline / Ratio of total ω-3/total ω-6 plasma Change from baseline / Stearic plasma Change from baseline: baseline to week 12, LS mean; for AA plasma End-of-treatment / DHA plasma End-of-treatment / DPAn-3 plasma End-of-treatment / Linoleic plasma End-of-treatment / Oleic plasma End-of-treatment / Palmitic plasma End-of-treatment / Ratio of AA/EPA plasma End-of-treatment / Ratio of total ω-3/total ω-6 plasma End-of-treatment / Stearic plasma End-of-treatment: week 12, mean; for Monounsaturated, proportion of total fatty acids, plasma, End-of-treatment / Saturated, proportion of total fatty acids, plasma, End-of-treatment / Total ω-3, proportion of total fatty acids, plasma, End-of-treatment / Total ω-6, proportion of total fatty acids, plasma, End-of-treatment: week 12, mean (SD)
Experimental: A multi-center, placebo-controlled, randomized, double-blind, 12-week study was performed to evaluate the efficacy and safety of >96% E-EPA in patients with fasting triglyceride levels≥200 mg/dl and <500 mg/dl despite statin therapy (the mean of two qualifying entry values needed to be ≥185 mg/dl and at least one of the values needed to be ≥200 mg/dl). The primary objective of the study was to determine the efficacy of >96% E-EPA 2 g daily and 4 g daily, compared to placebo, in lowering fasting TG levels in patients with high risk for cardiovascular disease and with fasting TG levels≥200 mg/dL and <500 mg/dL, despite treatment to LDL-C goal on statin therapy.
During the double-blind treatment period, patients were to take 2 capsules (>96% E-EPA or matching placebo) in the morning and 2 capsules in the evening for a total of 4 capsules per day. • Patients in the >96% E-EPA 2 g/day treatment group received 1>96% E-EPA 1 g capsule and 1 matching placebo capsule in the morning and in the evening. • Patients in the >96% E-EPA 4 g/day treatment group received 2>96% E-EPA 1 g capsules in the morning and evening. • Patients in the placebo group received 2 matching placebo capsules in the morning and evening.
Lipids were extracted from plasma and red blood cell (“RBC”) suspensions and converted into fatty acid methyl esters for analysis using a standard validated gas chromatography/flame ionization detection method. Fatty acid parameters were compared between EPA treatment groups and placebo using an ANCOVA model with treatment, gender, type of statin therapy, and presence of diabetes as factors, and the baseline parameter value as a covariate. LSMs, SEs, and 2-tailed 95% confidence intervals for each treatment group and for each comparison were determined.
The monounsaturated fatty acid group included myristoleic, palmitoleic, cis-vaccenic, oleic, gondoic/gadoleic, erucic and nervonic acids. The saturated fatty acid group included myristic, palmitic, stearic, arachidic, behenic and lignoceric acids. The “total ω-3” group included α-linolenic, stearidonic, eicosatrienoic, ω-3 arachidonic, eicosapentaenoic, ω-3 docosapentaenoic and docosahecaenoic acids. The “total ω-6” group included linoleic, γ-linolenic, eicosadienoic, dihomo-γ-linolenic, ω-6 arachidonic, adrenic, and ω-6 docosapentaenoic acids. The “total fatty acid” group represented the sum of the monounsaturated, saturated, total ω-3 and total ω-6 groups.

SMILES: CC/C=C\C/C=C\C/C=C\C/C=C\C/C=C\CCCC(=O)OCC [IPE, all-cis eicosa-5,8,11,14,17-pentaenoic acid ethyl ester]
- Monounsaturated, proportion of total fatty acids, plasma, Placebo-adjusted percent change from baseline (2 g/day vs placebo): −1.4%
- Saturated, proportion of total fatty acids, plasma, Placebo-adjusted percent change from baseline (2 g/day vs placebo): −0.2%
- Total ω-3, proportion of total fatty acids, plasma, Placebo-adjusted percent change from baseline (2 g/day vs placebo): 60.3%
- Total ω-6, proportion of total fatty acids, plasma, Placebo-adjusted percent change from baseline (2 g/day vs placebo): −4.6%
- AA plasma Placebo-adjusted percent change from baseline (2 g/day vs placebo): −19.1%
- DHA plasma Placebo-adjusted percent change from baseline (2 g/day vs placebo): −0.7%
- DPAn-3 plasma Placebo-adjusted percent change from baseline (2 g/day vs placebo): 88.9%
- Linoleic plasma Placebo-adjusted percent change from baseline (2 g/day vs placebo): −14.5%
- Oleic plasma Placebo-adjusted percent change from baseline (2 g/day vs placebo): −14.3%
- Palmitic plasma Placebo-adjusted percent change from baseline (2 g/day vs placebo): −12.1%
- Ratio of AA/EPA plasma Placebo-adjusted percent change from baseline (2 g/day vs placebo): −75.4%
- Ratio of total ω-3/total ω-6 plasma Placebo-adjusted percent change from baseline (2 g/day vs placebo): 64.3%
- Stearic plasma Placebo-adjusted percent change from baseline (2 g/day vs placebo): −12.6%
- Monounsaturated, proportion of total fatty acids, plasma, Change from baseline (2 g/day): −0.7 (0.4) mol %
- Saturated, proportion of total fatty acids, plasma, Change from baseline (2 g/day): −0.7 (0.3) mol %
- Total ω-3, proportion of total fatty acids, plasma, Change from baseline (2 g/day): 2.1 (0.2) mol %
- Total ω-6, proportion of total fatty acids, plasma, Change from baseline (2 g/day): −0.8 (0.5) mol %
- AA plasma Change from baseline (2 g/day): −31.1
- DHA plasma Change from baseline (2 g/day): 5.0
- DPAn-3 plasma Change from baseline (2 g/day): 22.4
- Linoleic plasma Change from baseline (2 g/day): −35.0
- Oleic plasma Change from baseline (2 g/day): −61.7
- Palmitic plasma Change from baseline (2 g/day): −50.1
- Ratio of AA/EPA plasma Change from baseline (2 g/day): −11.2
- Ratio of total ω-3/total ω-6 plasma Change from baseline (2 g/day): 0.1
- Stearic plasma Change from baseline (2 g/day): −19.6
- AA plasma End-of-treatment (2 g/day): 266.7
- DHA plasma End-of-treatment (2 g/day): 62.7
- DPAn-3 plasma End-of-treatment (2 g/day): 44.3
- Linoleic plasma End-of-treatment (2 g/day): 1082
- Oleic plasma End-of-treatment (2 g/day): 972.1
- Palmitic plasma End-of-treatment (2 g/day): 1004
- Ratio of AA/EPA plasma End-of-treatment (2 g/day): 3.4
- Ratio of total ω-3/total ω-6 plasma End-of-treatment (2 g/day): 0.2
- Stearic plasma End-of-treatment (2 g/day): 276.2
- Monounsaturated, proportion of total fatty acids, plasma, End-of-treatment (2 g/day): 28.0 (2.8) mol %
- Saturated, proportion of total fatty acids, plasma, End-of-treatment (2 g/day): 33.6 (2.2) mol %
- Total ω-3, proportion of total fatty acids, plasma, End-of-treatment (2 g/day): 5.1 (1.2) mol %
- Total ω-6, proportion of total fatty acids, plasma, End-of-treatment (2 g/day): 33.3 (3.4) mol %
- Monounsaturated, proportion of total fatty acids, plasma, Placebo-adjusted percent change from baseline (4 g/day vs placebo): −5.8%
- Saturated, proportion of total fatty acids, plasma, Placebo-adjusted percent change from baseline (4 g/day vs placebo): 0.4%
- Total ω-3, proportion of total fatty acids, plasma, Placebo-adjusted percent change from baseline (4 g/day vs placebo): 142.2%
- Total ω-6, proportion of total fatty acids, plasma, Placebo-adjusted percent change from baseline (4 g/day vs placebo): −7.4%
- AA plasma Placebo-adjusted percent change from baseline (4 g/day vs placebo): −30.7%
- DHA plasma Placebo-adjusted percent change from baseline (4 g/day vs placebo): −2.9%
- DPAn-3 plasma Placebo-adjusted percent change from baseline (4 g/day vs placebo): 143.6%
- Linoleic plasma Placebo-adjusted percent change from baseline (4 g/day vs placebo): −24.8%
- Oleic plasma Placebo-adjusted percent change from baseline (4 g/day vs placebo): −30.1%
- Palmitic plasma Placebo-adjusted percent change from baseline (4 g/day vs placebo): −23.3%
- Ratio of AA/EPA plasma Placebo-adjusted percent change from baseline (4 g/day vs placebo): −90.3%
- Ratio of total ω-3/total ω-6 plasma Placebo-adjusted percent change from baseline (4 g/day vs placebo): 165.9%
- Stearic plasma Placebo-adjusted percent change from baseline (4 g/day vs placebo): −16.5%
- Monounsaturated, proportion of total fatty acids, plasma, Change from baseline (4 g/day): −2.0 (0.4) mol %
- Saturated, proportion of total fatty acids, plasma, Change from baseline (4 g/day): −0.5 (0.3) mol %
- Total ω-3, proportion of total fatty acids, plasma, Change from baseline (4 g/day): 4.4 (0.2) mol %
- Total ω-6, proportion of total fatty acids, plasma, Change from baseline (4 g/day): −1.8 (0.5) mol %
- AA plasma Change from baseline (4 g/day): −60.1
- DHA plasma Change from baseline (4 g/day): 2.3
- DPAn-3 plasma Change from baseline (4 g/day): 31.8
- Linoleic plasma Change from baseline (4 g/day): −152
- Oleic plasma Change from baseline (4 g/day): −219
- Palmitic plasma Change from baseline (4 g/day): −161
- Ratio of AA/EPA plasma Change from baseline (4 g/day): −14.1
- Ratio of total ω-3/total ω-6 plasma Change from baseline (4 g/day): 0.2
- Stearic plasma Change from baseline (4 g/day): −31.2
- AA plasma End-of-treatment (4 g/day): 222.8
- DHA plasma End-of-treatment (4 g/day): 53.6
- DPAn-3 plasma End-of-treatment (4 g/day): 50.2
- Linoleic plasma End-of-treatment (4 g/day): 921.8
- Oleic plasma End-of-treatment (4 g/day): 782.5
- Palmitic plasma End-of-treatment (4 g/day): 843.8
- Ratio of AA/EPA plasma End-of-treatment (4 g/day): 1.6
- Ratio of total ω-3/total ω-6 plasma End-of-treatment (4 g/day): 0.2
- Stearic plasma End-of-treatment (4 g/day): 253.4
- Monounsaturated, proportion of total fatty acids, plasma, End-of-treatment (4 g/day): 26.7 (3.0) mol %
- Saturated, proportion of total fatty acids, plasma, End-of-treatment (4 g/day): 33.6 (2.4) mol %
- Total ω-3, proportion of total fatty acids, plasma, End-of-treatment (4 g/day): 7.1 (2.0) mol %
- Total ω-6, proportion of total fatty acids, plasma, End-of-treatment (4 g/day): 32.6 (3.5) mol %
